# Experimental data reported in ChEMBL document CHEMBL3621166, “Synthesis, Structure-Activity Relationship, and Mechanistic Investigation of Lithocholic Acid Amphiphiles for Colon Cancer Therapy” (Medchemcomm, 2015).
# Columns and labels:
# [1] = Retention time of the compound by HPLC method; type: physicochemical
# [2] = test system: HCT-116; test: Cytotoxicity against human HCT116 cells assessed as cell viability after 48 hrs by MTT assay; type: functional, cell-based; details: HCT-116, 48 h
# [3] = Cytotoxicity against human DLD1 cells assessed as cell viability after 48 hrs by MTT assay; type: functional, cell-based; details: DLD-1, 48 h
# [4] = Cytotoxicity against human HCT8 cells assessed as cell viability after 48 hrs by MTT assay; type: functional, cell-based; details: HCT-8, 48 h
SMILES,Retention_time [1] [min],IC50 [2] [µM],IC50 [3] [µM],IC50 [4] [µM]
COC(=O)CC[C@@H](C)[C@H]1CC[C@H]2[C@@H]3CC[C@@H]4C[C@H](OC(=O)C[N+](C)(C)C)CC[C@]4(C)[C@H]3CC[C@]12C.[Cl-],7.94,38.1,53,37
COC(=O)CC[C@@H](C)[C@H]1CC[C@H]2[C@@H]3CC[C@@H]4C[C@H](OC(=O)CN)CC[C@]4(C)[C@H]3CC[C@]12C,,36.7,29.4,30.7

# The next lines start with results.
Retention_time [1] [min],SMILES,IC50 [2] [µM],IC50 [3] [µM],IC50 [4] [µM]
8.23,COC(=O)CC[C@@H](C)[C@H]1CC[C@H]2[C@@H]3CC[C@@H]4C[C@H](OC(=O)C[N+]5(C)CCCC5)CC[C@]4(C)[C@H]3CC[C@]12C.[Cl-],17.8,17,36.4
24.17,COC(=O)CC[C@@H](C)[C@H]1CC[C@H]2[C@@H]3CC[C@@H]4C[C@H](OC(=O)CN5CCOCC5)CC[C@]4(C)[C@H]3CC[C@]12C.Cl,89,176,121
28.63,COC(=O)CC[C@@H](C)[C@H]1CC[C@H]2[C@@H]3CC[C@@H]4C[C@H](OC(=O)CN5CCSCC5)CC[C@]4(C)[C@H]3CC[C@]12C.Cl,87.3,163,130
